Data: patent publication US11331299B2, “Medicinal use of serrulatane diterpenes” (The University of Sydney, priority 2016, dated 2022)
Read-outs that look alike come from different tables or passages of the source.

What was measured:
[1] = target: Deacetylase, Sirtuin SIRT1 (Homo sapiens, UniProt Q96EB6); test: Deacetylase, Sirtuin SIRT1 (PanLab); type: biochemical; details: assay year 2014, read-out: % Control Response
[2] = system: H3K9 ac (increase); test: Cell-based stimulation assay; details: 10 μM
[3] = target: Deacetylase, Sirtuin SIRT5 (Homo sapiens, UniProt Q9NXA8); test: Deacetylase, Sirtuin SIRT5 (PanLab); type: biochemical; details: assay year 2014, read-out: % Control Response
Chain of Deacetylase, Sirtuin SIRT5 (Q9NXA8 37-310): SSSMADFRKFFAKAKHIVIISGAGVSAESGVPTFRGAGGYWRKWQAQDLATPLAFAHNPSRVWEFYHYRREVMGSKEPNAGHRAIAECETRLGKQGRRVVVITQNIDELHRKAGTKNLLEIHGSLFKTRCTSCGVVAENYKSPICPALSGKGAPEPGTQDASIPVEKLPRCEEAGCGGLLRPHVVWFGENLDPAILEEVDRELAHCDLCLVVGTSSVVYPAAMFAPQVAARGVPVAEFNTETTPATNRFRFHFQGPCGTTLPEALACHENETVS

[4] = target: Deacetylase, Histone 4 (Homo sapiens, UniProt P56524); test: Deacetylase, Histone 4 (PanLab); type: biochemical; details: assay year 2014, read-out: % Control Response
[5] = system: H3K27 ac (increase); test: Cell-based stimulation assay; details: 10 μM
[6] = target: Deacetylase, Sirtuin SIRT6 (Homo sapiens, UniProt Q8N6T7); test: Deacetylase, Sirtuin SIRT6 (PanLab); type: biochemical; details: assay year 2014, read-out: % Control Response
[7] = system: HUVEC endothelium cells (normal cell line); test: In vitro cell viability assay (intracellular ATP, 72 hour); type: cell-based; details: 10 μM; for % Cell growth: HUVEC, Endothelium (Normal)
[8] = target: Deacetylase, Histone 3 (Homo sapiens, UniProt O15379); test: Deacetylase, Histone 3 (PanLab); type: biochemical; details: assay year 2014, read-out: % Control Response
Chain of Deacetylase, Histone 3 (O15379 whole entry): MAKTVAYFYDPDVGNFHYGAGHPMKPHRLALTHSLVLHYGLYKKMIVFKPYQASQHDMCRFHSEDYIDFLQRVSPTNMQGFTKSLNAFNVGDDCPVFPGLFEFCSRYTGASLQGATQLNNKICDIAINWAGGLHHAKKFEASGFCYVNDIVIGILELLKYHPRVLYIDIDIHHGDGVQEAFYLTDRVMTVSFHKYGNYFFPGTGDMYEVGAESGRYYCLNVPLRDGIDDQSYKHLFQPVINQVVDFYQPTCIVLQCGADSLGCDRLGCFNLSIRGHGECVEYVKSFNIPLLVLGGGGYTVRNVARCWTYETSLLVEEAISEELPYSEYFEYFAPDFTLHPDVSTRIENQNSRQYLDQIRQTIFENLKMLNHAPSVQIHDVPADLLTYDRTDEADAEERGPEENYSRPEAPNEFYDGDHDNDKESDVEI
Chain of Deacetylase, Histone 3 (Q9Y618 395-489 partner limits assumed): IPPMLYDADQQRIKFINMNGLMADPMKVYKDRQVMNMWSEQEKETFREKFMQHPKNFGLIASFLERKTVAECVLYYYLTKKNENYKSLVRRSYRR

[9] = target: Deacetylase, Histone 9 (Homo sapiens, UniProt Q9UKV0); test: Deacetylase, Histone 9 (PanLab); type: biochemical; details: assay year 2014, read-out: % Control Response
Chain of Deacetylase, Histone 9 (Q9UKV0 whole entry): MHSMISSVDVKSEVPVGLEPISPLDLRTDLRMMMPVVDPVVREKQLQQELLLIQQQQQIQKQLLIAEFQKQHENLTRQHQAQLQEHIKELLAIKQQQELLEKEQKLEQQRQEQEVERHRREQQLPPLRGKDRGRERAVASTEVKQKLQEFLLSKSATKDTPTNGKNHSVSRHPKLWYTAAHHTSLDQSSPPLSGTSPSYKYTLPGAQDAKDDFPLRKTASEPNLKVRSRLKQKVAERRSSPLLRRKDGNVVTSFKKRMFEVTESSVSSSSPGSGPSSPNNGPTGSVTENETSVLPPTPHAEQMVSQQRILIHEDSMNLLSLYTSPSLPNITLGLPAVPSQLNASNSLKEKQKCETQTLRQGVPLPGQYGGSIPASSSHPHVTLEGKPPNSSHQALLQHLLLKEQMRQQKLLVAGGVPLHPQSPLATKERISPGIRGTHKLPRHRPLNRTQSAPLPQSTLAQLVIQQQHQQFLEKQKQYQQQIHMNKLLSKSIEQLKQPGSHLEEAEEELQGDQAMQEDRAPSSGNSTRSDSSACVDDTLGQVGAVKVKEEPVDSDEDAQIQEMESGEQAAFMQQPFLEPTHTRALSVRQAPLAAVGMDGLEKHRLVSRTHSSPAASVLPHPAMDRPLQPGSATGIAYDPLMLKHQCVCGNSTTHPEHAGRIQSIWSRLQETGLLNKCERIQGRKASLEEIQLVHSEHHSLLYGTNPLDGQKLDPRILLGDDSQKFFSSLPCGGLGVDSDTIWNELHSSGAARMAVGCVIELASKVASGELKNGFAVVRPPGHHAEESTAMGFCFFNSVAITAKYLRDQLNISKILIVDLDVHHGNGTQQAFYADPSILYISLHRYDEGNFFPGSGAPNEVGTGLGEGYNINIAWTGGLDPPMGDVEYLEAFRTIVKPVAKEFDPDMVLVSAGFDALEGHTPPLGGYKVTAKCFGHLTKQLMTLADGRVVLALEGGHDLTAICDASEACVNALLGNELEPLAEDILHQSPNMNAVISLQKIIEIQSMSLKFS

[10] = target: Deacetylase, Histone 10 (Homo sapiens, UniProt Q969S8); test: Deacetylase, Histone 10 (PanLab); type: biochemical; details: assay year 2014, read-out: % Control Response
[11] = target: Deacetylase, Histone 11 (Homo sapiens, UniProt Q96DB2); test: Deacetylase, Histone 11 (PanLab); type: biochemical; details: assay year 2014, read-out: % Control Response
[12] = target: Nitric Oxide Synthase, Neuronal (nNOS) (Rattus norvegicus, UniProt P29476); test: Nitric Oxide Synthase, Neuronal (nNOS); type: biochemical; details: assay year 2014, read-out: % Control Response
[13] = target: Deacetylase, Sirtuin SIRT2 (Homo sapiens, UniProt Q8IXJ6); test: Deacetylase, Sirtuin SIRT2 (PanLab); type: biochemical; details: assay year 2014, read-out: % Control Response
[14] = target: DAPK3/ZIP (substrate histone H3 full length) (Homo sapiens, UniProt O43293); test: Epigenetic enzyme assay, Kinases; type: biochemical; details: read-out: % Inhibition of Control Values
Chain of DAPK3/ZIP (substrate histone H3 full length) (O43293 whole entry): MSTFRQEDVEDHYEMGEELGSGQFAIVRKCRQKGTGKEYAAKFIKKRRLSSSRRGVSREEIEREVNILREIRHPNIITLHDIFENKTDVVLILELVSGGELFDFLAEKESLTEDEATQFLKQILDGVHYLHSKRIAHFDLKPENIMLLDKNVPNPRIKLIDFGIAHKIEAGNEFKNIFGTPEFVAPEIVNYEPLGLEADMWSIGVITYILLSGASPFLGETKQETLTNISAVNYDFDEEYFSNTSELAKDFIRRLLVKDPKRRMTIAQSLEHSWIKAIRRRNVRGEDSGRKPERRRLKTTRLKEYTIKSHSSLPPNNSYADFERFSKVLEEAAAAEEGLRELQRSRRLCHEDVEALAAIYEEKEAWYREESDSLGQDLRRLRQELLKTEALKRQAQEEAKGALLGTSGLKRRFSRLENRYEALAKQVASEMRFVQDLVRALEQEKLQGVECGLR

[15] = target: Deacetylase, Histone 6 (Homo sapiens, UniProt Q9UBN7); test: Deacetylase, Histone 6 (PanLab); type: biochemical; details: assay year 2014, read-out: % Control Response
[16] = target: sirtuin 1 (h) (activator effect) (Homo sapiens, UniProt Q96EB6); type: biochemical; details: 10 μM
[17] = target: DOT1L (h) (Homo sapiens, UniProt Q8TEK3); test: Epigenetic enzyme assay, Methyltransferases (MTs); type: biochemical; details: read-out: % Inhibition of Control Values
Chain of DOT1L (h) (Q8TEK3 whole entry): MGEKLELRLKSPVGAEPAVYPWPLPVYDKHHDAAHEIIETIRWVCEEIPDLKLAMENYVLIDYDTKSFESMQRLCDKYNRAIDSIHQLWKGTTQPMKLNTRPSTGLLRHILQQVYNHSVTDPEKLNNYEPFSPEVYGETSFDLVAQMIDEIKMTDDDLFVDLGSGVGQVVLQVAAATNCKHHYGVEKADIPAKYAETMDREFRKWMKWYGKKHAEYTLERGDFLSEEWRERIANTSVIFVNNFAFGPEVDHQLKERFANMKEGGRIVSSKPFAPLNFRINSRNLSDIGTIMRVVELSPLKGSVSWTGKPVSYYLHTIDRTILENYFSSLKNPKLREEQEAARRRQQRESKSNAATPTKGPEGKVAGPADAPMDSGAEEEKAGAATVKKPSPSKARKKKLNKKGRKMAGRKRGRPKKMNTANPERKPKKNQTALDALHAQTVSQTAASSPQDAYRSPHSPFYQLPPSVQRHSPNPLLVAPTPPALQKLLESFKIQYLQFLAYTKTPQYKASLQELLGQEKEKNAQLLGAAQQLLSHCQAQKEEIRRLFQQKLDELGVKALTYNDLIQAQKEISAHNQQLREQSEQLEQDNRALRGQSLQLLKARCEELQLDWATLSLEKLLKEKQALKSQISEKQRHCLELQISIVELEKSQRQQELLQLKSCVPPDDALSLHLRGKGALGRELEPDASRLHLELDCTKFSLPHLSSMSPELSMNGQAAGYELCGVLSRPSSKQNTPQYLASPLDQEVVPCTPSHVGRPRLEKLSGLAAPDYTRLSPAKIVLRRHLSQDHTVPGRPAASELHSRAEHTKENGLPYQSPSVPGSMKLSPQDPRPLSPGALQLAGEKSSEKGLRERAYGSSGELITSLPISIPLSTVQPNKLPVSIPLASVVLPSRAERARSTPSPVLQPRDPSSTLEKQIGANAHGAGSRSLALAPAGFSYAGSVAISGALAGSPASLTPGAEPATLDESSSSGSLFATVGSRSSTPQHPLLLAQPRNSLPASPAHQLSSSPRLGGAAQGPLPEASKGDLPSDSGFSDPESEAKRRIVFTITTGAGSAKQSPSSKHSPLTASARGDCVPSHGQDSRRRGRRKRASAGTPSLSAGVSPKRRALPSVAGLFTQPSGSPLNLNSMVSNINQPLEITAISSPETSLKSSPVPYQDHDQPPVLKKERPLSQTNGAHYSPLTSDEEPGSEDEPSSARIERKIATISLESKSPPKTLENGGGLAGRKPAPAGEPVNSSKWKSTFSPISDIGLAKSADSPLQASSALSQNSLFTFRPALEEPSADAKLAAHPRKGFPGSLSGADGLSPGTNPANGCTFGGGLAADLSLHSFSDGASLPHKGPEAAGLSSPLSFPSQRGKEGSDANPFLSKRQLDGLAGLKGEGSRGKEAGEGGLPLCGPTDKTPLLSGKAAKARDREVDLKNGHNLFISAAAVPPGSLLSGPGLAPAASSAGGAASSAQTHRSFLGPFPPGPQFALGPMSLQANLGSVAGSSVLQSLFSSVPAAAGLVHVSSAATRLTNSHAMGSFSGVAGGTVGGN

[18] = target: Deacetylase, Sirtuin SIRT3 (Homo sapiens, UniProt Q9NTG7); test: Deacetylase, Sirtuin SIRT3 (PanLab); type: biochemical; details: assay year 2014, read-out: % Control Response
[19] = target: T1, Deacetylase, Histone 1 (Homo sapiens, UniProt Q13547); test: Deacetylase, Histone 1 (PanLab); type: biochemical
T1 construct: host or cells: Insect Sf9 cells
T1 sequence (Q13547 whole entry): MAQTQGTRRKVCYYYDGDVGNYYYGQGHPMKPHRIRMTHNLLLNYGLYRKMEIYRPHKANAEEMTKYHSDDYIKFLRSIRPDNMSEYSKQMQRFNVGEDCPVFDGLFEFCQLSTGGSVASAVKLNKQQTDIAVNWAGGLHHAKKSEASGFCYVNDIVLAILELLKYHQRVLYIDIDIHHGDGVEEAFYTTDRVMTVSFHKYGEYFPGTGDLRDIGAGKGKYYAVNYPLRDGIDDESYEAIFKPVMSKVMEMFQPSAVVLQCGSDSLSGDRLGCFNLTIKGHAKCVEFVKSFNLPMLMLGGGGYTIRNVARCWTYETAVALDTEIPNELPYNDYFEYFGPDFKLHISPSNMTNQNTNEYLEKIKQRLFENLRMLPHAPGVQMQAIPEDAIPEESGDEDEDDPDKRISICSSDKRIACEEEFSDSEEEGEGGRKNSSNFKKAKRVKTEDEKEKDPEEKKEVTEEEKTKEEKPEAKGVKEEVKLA
Experimental: (§1) The in vitro pharmacological studies were conducted by Eurofins PanLab (Taiwan) using the parameters shown in Table 13 with respect to appropriate literature references.

[20] = target: T2, Histamine H2 (Homo sapiens, UniProt P25021); test: Histamine H2 radio ligand binding
T2 construct: expressed in transfected cells; host or cells: CHO-K1 cells
T2 sequence (P25021 whole entry): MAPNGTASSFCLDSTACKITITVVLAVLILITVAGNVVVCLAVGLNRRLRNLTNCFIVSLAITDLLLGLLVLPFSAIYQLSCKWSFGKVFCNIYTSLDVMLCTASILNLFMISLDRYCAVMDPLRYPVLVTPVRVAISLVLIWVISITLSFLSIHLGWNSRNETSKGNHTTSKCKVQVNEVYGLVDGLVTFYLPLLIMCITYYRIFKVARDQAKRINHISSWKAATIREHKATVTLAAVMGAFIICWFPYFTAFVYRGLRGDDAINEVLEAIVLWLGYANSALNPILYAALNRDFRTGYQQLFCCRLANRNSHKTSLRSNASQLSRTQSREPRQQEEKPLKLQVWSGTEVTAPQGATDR
Experimental: as §1

[21] = system: Nitric Oxide Synthase, Inducible (iNOS); test: Nitric Oxide Synthase, Inducible (iNOS); type: biochemical; details: 10 μM; assay year 2014
[22] = target: T3, PB1(3) (h) bromodomain (Homo sapiens, UniProt Q86U86); test: Epigenetic binding assay, Bromodomain; details: read-out: % Inhibition of Control Specific Binding
T3 construct: Bromodomain
T3 sequence (Q86U86 381-487 limits assumed): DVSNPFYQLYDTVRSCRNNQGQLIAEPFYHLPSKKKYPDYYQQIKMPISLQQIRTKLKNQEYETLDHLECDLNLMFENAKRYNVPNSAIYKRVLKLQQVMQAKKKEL

[23] = target: T4, FBXL11 (h) (Homo sapiens, UniProt Q9Y2K7); test: Epigenetic enzyme assay, Demethylases (KDMs); type: biochemical; details: read-out: % Inhibition of Control Values
T4 sequence (Q9Y2K7 1-1162): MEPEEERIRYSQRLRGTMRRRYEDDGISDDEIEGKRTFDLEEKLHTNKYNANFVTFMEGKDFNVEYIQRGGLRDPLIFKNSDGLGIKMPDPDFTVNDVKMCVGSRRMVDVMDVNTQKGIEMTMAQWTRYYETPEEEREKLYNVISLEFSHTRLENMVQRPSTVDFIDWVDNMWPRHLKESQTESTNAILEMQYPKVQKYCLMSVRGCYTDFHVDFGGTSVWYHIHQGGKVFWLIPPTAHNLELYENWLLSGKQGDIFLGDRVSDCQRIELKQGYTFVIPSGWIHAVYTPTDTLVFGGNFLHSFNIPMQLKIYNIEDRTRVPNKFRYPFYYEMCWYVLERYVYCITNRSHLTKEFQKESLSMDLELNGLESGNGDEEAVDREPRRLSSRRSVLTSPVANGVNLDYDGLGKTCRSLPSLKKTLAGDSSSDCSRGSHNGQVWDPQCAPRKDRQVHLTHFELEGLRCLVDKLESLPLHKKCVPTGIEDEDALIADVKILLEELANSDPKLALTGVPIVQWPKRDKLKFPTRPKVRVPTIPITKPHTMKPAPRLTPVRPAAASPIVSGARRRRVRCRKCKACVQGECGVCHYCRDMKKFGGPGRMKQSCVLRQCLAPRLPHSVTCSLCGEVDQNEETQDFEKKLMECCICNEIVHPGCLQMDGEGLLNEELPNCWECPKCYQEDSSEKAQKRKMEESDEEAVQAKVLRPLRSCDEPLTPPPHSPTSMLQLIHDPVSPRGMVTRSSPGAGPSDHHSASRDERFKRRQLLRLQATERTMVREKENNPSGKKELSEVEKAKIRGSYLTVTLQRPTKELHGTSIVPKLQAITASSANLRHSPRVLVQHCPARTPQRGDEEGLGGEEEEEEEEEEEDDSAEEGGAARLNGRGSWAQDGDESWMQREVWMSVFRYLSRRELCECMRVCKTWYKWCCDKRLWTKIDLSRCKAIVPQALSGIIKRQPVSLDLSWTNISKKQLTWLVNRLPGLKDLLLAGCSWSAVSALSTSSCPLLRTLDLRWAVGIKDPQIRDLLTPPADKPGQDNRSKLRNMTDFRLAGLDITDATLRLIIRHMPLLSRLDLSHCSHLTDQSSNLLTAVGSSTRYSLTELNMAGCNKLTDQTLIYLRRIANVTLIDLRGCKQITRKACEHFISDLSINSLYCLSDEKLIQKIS

[24] = system: Nitric Oxide Synthase, Endothelial (eNOS); test: Nitric Oxide Synthase, Endothelial (eNOS); type: biochemical; details: 10 μM; assay year 2014
[25] = assay year 2014, read-out: % Control Response
[26] = assay year 2015, read-out: % Control Response

Row | Structure (SMILES) | remaining activity at 10 µM [1] | % Stimulation Relative to Control [2] | remaining activity at 10 µM [3] | remaining activity at 10 µM [4] | % Stimulation Relative to Control [5] | remaining activity at 10 µM [6] | % Cell growth [7] | remaining activity at 10 µM [8] | remaining activity at 10 µM [9] | remaining activity at 10 µM [10] | remaining activity at 10 µM [11] | remaining activity at 10 µM [12] | remaining activity at 10 µM [13] | inhibition at 10 µM [14] | remaining activity at 10 µM [15] | inhibition at 10 µM [17] | % control response at 10 µM ([19]; assay year 2015) | remaining activity at 10 µM [20, 26] | inhibition at 10 µM [22] | inhibition at 10 µM [23] | further results
1 | CC(C)=CCC[C@H](CO)[C@@H]1CC[C@@H](C)c2c1cc(C)c(O)c2O [Compound 1, 7,8,18-trihydroxyserrulat-14-ene] | 6% | −21% | -16% | 4% | −28% | 35% | −90% | -5% | -14% | 11% | 9% | 14% | 0% | 4% | 0% | -5% | -27% | 73% | 38% | 34% | % Stimulation Relative to Control [16]: −5%; remaining activity at 10 µM [18]: -6%; % control response at 10 µM ([19]; assay year 2014): 17%; remaining activity at 10 µM [20, 25]: 67%; % Control Response [21]: 16%; % Control Response [24]: 6%
2 | CC(C)=CCC[C@@H]1C(O)Oc2c(C)cc(O)c3c2[C@H]1CC[C@H]3C (stereo partly shown) [Compound 2, 5,18-epoxyserrulat-14-en-8,18-diol] | -3% |  | 24% | -5% |  | 18% | 97% | 25% | -13% | 9% | 5% | 5% | 26% | 9% | -17% | 18% | -18% | -5% | 13% | 2% | remaining activity at 10 µM [18]: -9%; % control response at 10 µM ([19]; assay year 2014): 23%; remaining activity at 10 µM [20, 25]: 24%; % Control Response [21]: 7%; % Control Response [24]: 5%
3 | CC(C)=CCC[C@@H]1COc2c(C)cc(O)c3c2[C@H]1CC[C@H]3C [Compound 3, 5,18-epoxy-8-hydroxyserrulat-14-ene] |  | −8% |  |  | −25% |  | 91% |  |  |  |  |  |  | 8% |  | 13% | -26% | 66% | 6% | 11% | % Stimulation Relative to Control [16]: −4%
4 | CC(C)=CCC[C@H](C)[C@@H]1CC[C@@H](C)c2c1cc(C)c(O)c2O [Compound 4, 7,8-dihydroxyserrulat-14-ene] |  |  |  |  |  |  | 37% |  |  |  |  |  |  |  |  |  |  |  |  |  | reduction in the growth [7]: no significant reduction
